Data reported in PubChem BioAssay (NCI).
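Tested at 5 concentrations; 48 h exposure; 96-well plates; endpoints linearly interpolated, else capped at highest concentration. GI50: concentration for 50% inhibition of growth. TGI denotes the concentration required for complete inhibition of growth.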

How the values were obtained:
Test in all cases: DTP human tumour cell line panel, 48 h
HOP-62 NSCLC = tested on: HOP-62 NSCLC
LOX IMVI melanoma = tested on: LOX IMVI melanoma
SF-539 CNS = tested on: SF-539 CNS
ACHN renal = tested on: ACHN renal
786-0 renal = tested on: 786-0 renal
CAKI-1 renal = tested on: CAKI-1 renal
OVCAR-5 ovarian = tested on: OVCAR-5 ovarian
SNB-75 CNS = tested on: SNB-75 CNS
NCI-H226 lung = tested on: NCI-H226 lung
SK-MEL-5 melanoma = tested on: SK-MEL-5 melanoma

| Compound | GI50 (HOP-62 NSCLC) [µM] | TGI (HOP-62 NSCLC) [µM] | GI50 (LOX IMVI melanoma) [µM] | TGI (LOX IMVI melanoma) [µM] | GI50 (SF-539 CNS) [µM] | TGI (SF-539 CNS) [µM] | GI50 (ACHN renal) [µM] | TGI (ACHN renal) [µM] | GI50 (786-0 renal) [µM] | TGI (786-0 renal) [µM] | GI50 (CAKI-1 renal) [µM] | TGI (CAKI-1 renal) [µM] | GI50 (OVCAR-5 ovarian) [µM] | TGI (OVCAR-5 ovarian) [µM] | GI50 (SNB-75 CNS) [µM] | TGI (SNB-75 CNS) [µM] | GI50 (NCI-H226 lung) [µM] | TGI (NCI-H226 lung) [µM] | TGI (SK-MEL-5 melanoma) [µM] | GI50 (SK-MEL-5 melanoma) [µM] |
| --- | --- | --- | --- | --- | --- | --- | --- | --- | --- | --- | --- | --- | --- | --- | --- | --- | --- | --- | --- | --- |
| CC(C)[C@]12O[C@H]1[C@@H]1O[C@]13[C@]1(O[C@H]1C[C@H]1c4c(C(=O)c5ccccc5)oc(OC(=O)c5ccccc5)c4CC[C@@]13C)[C@@H]2O | 0.0278 | 0.735 | 0.0144 | 14.8 | 0.0282 | 0.115 | 0.0174 | 20.7 | 0.0352 | 5.22 | 0.0183 | 50.2 | 0.0401 | > 100 | 0.0224 | 0.17 | 0.025 | 0.554 | – | – |
| O=S1(=O)CSc2ccc3ccccc3c2-c2c1ccc1ccccc21 | – | > 100 | – | > 100 | – | > 100 | – | > 100 | – | > 100 | – | > 100 | – | > 100 | – | > 100 | – | – | > 100 | – |
| CC1=C(C)C(=O)C(C(C)C2=C(C)C(=O)C(C)=C(C)C2=O)=C(C)C1=O | > 100 | > 100 | 19 | > 100 | 23.7 | > 100 | 24.5 | > 100 | 50.8 | > 100 | 28.6 | > 100 | 47 | > 100 | – | – | 58.3 | > 100 | 64.6 | 12.5 |
| CC(=O)O[C@H]1CC[C@@]2(C)C(=CC[C@@H]3C2CC[C@]2(C)Nc4oncc4CC32)C1 (stereo partly drawn) | – | > 100 | – | – | – | > 100 | – | 72.4 | – | > 100 | – | > 100 | – | > 100 | – | > 100 | – | 49.5 | 33.2 | – |
| CCOC(=O)C(=Cc1ccccc1Br)C(=O)OCC | – | > 100 | – | – | – | 8.32 | – | 6.01 | – | > 100 | – | 6.83 | – | 62.5 | – | 75.5 | – | 8.99 | 3.85 | – |
| COc1ccc(-n2c(N)c(C(=O)NCCN3CCOCC3)c3nc4ccccc4nc32)cc1OC | – | – | 5.69 | > 100 | 7.8 | > 100 | 4.16 | > 100 | 2.02 | 79.2 | 4.62 | > 100 | > 100 | > 100 | 38.7 | > 100 | 11.4 | > 100 | > 100 | 3.22 |
| Cc1cc2c(=O)cc(-c3ccc(Cl)cc3)oc2c(C(=O)O)c1C | – | – | – | > 100 | – | > 100 | – | > 100 | – | > 100 | – | > 100 | – | > 100 | – | > 100 | – | > 100 | > 100 | – |
| O=C1c2cccc3cccc(c23)C(=O)N1CCCCOc1ccc(-c2nc3ccc(N4CCOCC4)cc3[nH]2)cc1 | 2.47 | 5.9 | 2.11 | 4.53 | 1.65 | 3.47 | 15.2 | 29.2 | 1.28 | 2.68 | 11.6 | 27 | 18.9 | 34.9 | – | – | 25.6 | 47.6 | 3.06 | 1.6 |
| N#CC(C#N)=C1NC(=O)C(c2ccccc2)C(=O)N1 (stereo not drawn) | – | > 100 | – | > 100 | – | > 100 | – | – | – | > 100 | – | > 100 | – | > 100 | – | > 100 | – | > 100 | > 100 | – |
| Cc1ccc(/C=C2\CCOC2=O)cc1 | > 100 | > 100 | > 100 | > 100 | > 100 | > 100 | > 100 | > 100 | > 100 | > 100 | – | – | > 100 | > 100 | > 100 | > 100 | > 100 | > 100 | > 100 | > 100 |
| CC(=O)Nc1ccc(C(=O)N[C@@H]2C(=O)N3[C@@H]2SC(C)(C)[C@@H]3C(=O)O)cn1 | – | > 100 | – | > 100 | – | – | – | > 100 | – | > 100 | – | > 100 | – | > 100 | – | > 100 | – | > 100 | > 100 | – |
| Cc1cc(Cl)ccc1N1C(=O)C(=O)C(c2nc3ccccc3s2)C(=O)C1=O | – | > 100 | – | – | – | > 100 | – | > 100 | – | > 100 | – | > 100 | – | > 100 | – | > 100 | – | > 100 | > 100 | – |
| C[Si](C)(C)/C(Br)=C\CCN1C(=O)CCC1O (stereo not drawn) | – | – | – | > 100 | – | > 100 | – | > 100 | – | > 100 | – | – | – | > 100 | – | > 100 | – | > 100 | – | – |
| COc1ccc(C2CC(c3cc(OC)c(OC)c(OC)c3)=NN2)cc1 (stereo not drawn) | 28.7 | 99.2 | 5.52 | > 100 | 5.88 | 36.6 | 26.2 | > 100 | 20.7 | > 100 | 7.39 | 63.5 | 49.3 | > 100 | – | – | 23.8 | > 100 | 17.8 | 4.29 |
| Cn1cccc1-c1cc(-c2ccc(Br)cc2)nc(N)c1C#N | – | – | > 100 | > 100 | > 100 | > 100 | > 100 | > 100 | > 100 | > 100 | > 100 | > 100 | > 100 | > 100 | 22.2 | 84.3 | 63.8 | > 100 | > 100 | > 100 |
| CC(C)(C)c1cc(C(O)(C(F)(F)F)C(F)(F)F)c2c(c1)C(C(F)(F)F)(C(F)(F)F)OC(c1ccccc1)(C(C)(C)C)N2 (stereo not drawn) | – | – | – | – | – | > 100 | – | 14 | – | > 100 | – | 16.4 | – | 50.9 | – | 15.1 | – | 9.32 | 10.3 | – |
| NS(=O)(=O)c1ccc(-n2nc(-c3ccc(Cl)cc3)cc2C2=CC(=O)C=CC2=O)cc1 | – | – | – | – | 21.5 | 45.4 | 20.8 | 35.1 | 19.8 | 36 | 25.2 | 48.5 | 19.5 | 46.1 | – | – | 13.8 | 34.4 | 43.5 | 18.2 |
